Laboratory results as given in patent US20240374573A1, “IMIDAZOLE CONTAINING COMPOUNDS, DERIVATIVES THEREFORE, AND USES THEREOF” (AglaeaPharma Inc., priority 2023, published 2024).

Tests used:
[1] = molecular target: T1, α2AAR (α2A-adrenergic receptor) (Homo sapiens, UniProt P08913); test: α2AAR FLIPR assay (agonist activity); assay type: cell-based; settings: FLIPR, α2AAR cell line hosted in HEK293 cells; read-out: α2A agonist activity (EC50)
T1 construct: expressed in transfected cells; host or cells: HEK293
T1 sequence (P08913 1-465): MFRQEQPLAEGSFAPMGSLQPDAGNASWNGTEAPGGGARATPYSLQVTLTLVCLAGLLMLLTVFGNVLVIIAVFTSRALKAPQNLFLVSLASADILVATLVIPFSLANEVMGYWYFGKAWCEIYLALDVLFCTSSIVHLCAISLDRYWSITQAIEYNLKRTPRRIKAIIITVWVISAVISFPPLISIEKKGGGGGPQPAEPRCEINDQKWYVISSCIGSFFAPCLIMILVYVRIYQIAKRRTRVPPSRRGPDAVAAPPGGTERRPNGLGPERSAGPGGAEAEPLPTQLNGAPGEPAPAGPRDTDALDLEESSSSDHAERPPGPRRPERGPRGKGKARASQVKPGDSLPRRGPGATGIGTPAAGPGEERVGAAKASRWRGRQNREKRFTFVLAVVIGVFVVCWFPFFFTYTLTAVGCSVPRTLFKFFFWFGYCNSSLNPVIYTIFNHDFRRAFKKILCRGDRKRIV
Method in brief: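 HEK293 cells expressing α2AAR loaded with Fluo-4 Direct plus probenecid for 50 min at 37° C and 10 min at room temperature, then treated with serially diluted compounds.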

α2AAR = molecular target: T2, α2AAR (Homo sapiens, UniProt P08913); test: α2AAR binding assay ([3H]-RX 821002 radioligand); settings: [3H]-RX 821002 0.5 nM, HEK293 membranes; read-out: α2A affinity (Ki)
T2 construct: host or cells: HEK293 (membranes)
T2 sequence (P08913 1-465): T1 sequence (P08913 1-465)

[2] = molecular target: P-glycoprotein (P-gp, MDR1) (Homo sapiens, UniProt P08183); test: in vitro; settings: dog, MDCK-MDR1, pH 7.4
Chain of P-glycoprotein (P-gp, MDR1) (P08183 whole entry): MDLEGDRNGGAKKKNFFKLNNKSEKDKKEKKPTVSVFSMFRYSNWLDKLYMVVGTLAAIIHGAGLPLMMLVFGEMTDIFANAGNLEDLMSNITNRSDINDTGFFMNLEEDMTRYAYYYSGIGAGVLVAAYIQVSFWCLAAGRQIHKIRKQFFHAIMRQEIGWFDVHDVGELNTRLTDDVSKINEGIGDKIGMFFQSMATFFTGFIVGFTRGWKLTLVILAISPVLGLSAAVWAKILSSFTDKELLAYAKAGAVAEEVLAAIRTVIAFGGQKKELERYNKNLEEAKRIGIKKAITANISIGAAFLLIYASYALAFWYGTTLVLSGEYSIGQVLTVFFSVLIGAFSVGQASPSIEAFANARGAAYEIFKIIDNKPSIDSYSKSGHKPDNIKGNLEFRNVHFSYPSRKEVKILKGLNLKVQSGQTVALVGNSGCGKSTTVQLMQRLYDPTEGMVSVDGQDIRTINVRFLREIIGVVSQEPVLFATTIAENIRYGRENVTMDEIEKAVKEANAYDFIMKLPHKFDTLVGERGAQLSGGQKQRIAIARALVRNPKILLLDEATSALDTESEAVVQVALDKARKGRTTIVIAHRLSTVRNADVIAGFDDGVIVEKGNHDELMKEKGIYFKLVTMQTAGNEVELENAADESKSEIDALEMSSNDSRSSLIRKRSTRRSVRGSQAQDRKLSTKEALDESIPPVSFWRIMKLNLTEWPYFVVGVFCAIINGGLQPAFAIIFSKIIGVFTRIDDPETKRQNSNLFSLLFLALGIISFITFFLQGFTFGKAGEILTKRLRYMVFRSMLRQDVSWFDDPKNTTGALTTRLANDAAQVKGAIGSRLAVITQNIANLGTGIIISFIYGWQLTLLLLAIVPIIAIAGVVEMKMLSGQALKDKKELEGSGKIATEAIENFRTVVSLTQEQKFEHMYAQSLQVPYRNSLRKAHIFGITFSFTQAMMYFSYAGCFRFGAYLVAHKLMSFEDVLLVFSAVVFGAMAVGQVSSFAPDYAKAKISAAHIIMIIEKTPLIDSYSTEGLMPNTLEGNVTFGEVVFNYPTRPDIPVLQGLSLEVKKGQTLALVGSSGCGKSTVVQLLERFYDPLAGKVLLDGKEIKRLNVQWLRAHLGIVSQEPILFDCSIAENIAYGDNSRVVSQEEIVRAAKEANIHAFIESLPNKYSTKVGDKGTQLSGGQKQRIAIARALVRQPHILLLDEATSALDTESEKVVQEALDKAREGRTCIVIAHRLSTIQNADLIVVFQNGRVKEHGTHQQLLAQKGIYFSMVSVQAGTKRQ
Experimental: MDR1-MDCK II cells (obtained from Piet Borst at the Netherlands Cancer Institute) were seeded onto Polycarbonate membranes (PC) in 96-well insert systems at 3.33×10^5 cells/mL until to 4-7 days for confluent cell monolayer formation.
Selected α2AR agonist from table 3s were diluted with the transport buffer (HBSS with 10.0 mM Hepes, pH7.4) from DMSO stock solution to a concentration of 2 μM (DMSO<1%) and applied to the apical or basolateral side of the cell monolayer. […] Permeation of the test compounds from A to B direction and/or B to A direction was determined in duplicate. Digoxin was tested at 10.0 μM from A to B direction and B to A direction in duplicate. The plate was incubated for 2.5 hours in CO2 incubator at 37.0±1.0° C., with 5.0% CO2 at saturated humidity without shaking. In addition, the efflux ratio of each compound was also determined. Test and reference compounds were quantified by LC/MS/MS analysis based on the peak area ratio of analyte/IS.
After transport assay, lucifer yellow rejection assay was applied to determine the cell monolayer integrity. Buffers were removed from both apical and basolateral chambers, followed by the addition of 75 μL of 100 μM lucifer yellow in transport buffer and 250 μL transport buffer in apical and basolateral chambers, respectively. The plate was incubated for 30 minutes at 37.0° C. with 5.0% CO2 and 95.0% relative humidity without shaking. After 30 minutes incubation, 20 μL of lucifer yellow samples were taken from the apical sides, followed by the addition of 60 μL of transport Buffer. And then 80 μL of lucifer yellow samples were taken from the basolateral sides. The relative fluorescence unit (RFU) of lucifer yellow was measured at 425/528 nm (excitation/emission) with an Envision plate reader.
The apparent permeability coefficient Papp (cm/s) was calculated using the equation: […]
wherein dCr/dt is the cumulative concentration of compound in the receiver chamber as a function of time (μM/s); Vr is the solution volume in the receiver chamber (0.075 mL on the apical side, 0.25 mL on the basolateral side); A is the surface area for the transport, i.e. 0.143 cm2 for the area of the monolayer; and C0 is the initial concentration in the donor chamber (μM).
The efflux ratio was calculated using the equation: […]

| Structure (SMILES) | EC50 [1] | Ki (α2AAR) | efflux ratio at 2.5 h, 2 μM [2] |
| --- | --- | --- | --- |
| Cc1c(CF)cccc1C(c1cccc(NS(C)(=O)=O)c1)c1c[nH]cn1 (racemic) [compound 118] | 10 to 50 nM | 10 to 50 nM | 25.3 |
| CONC(=O)c1cccc(C(c2c[nH]cn2)c2cccc(C)c2C)c1 (single isomer, unassigned) [1-B] | 10 to 50 nM | 50 to 250 nM | 51 |
| Cc1cccc(C(c2cccc(C(N)=O)c2)c2c[nH]cn2)c1C (single isomer, unassigned) [5-B] | 10 to 50 nM | 10 to 50 nM | 33.2 |
| Cc1cccc(C(c2c[nH]cn2)c2cccc(C(N)=O)c2F)c1C (single isomer, unassigned) [45-B] | 10 to 50 nM | < 10 nM | 14 |
| Cc1cccc(C(c2cccc(C(=O)NC3CCOCC3)c2)c2c[nH]cn2)c1C (single isomer, unassigned) [121-B] | < 10 nM | < 10 nM | 30.9 |
| Cc1cccc(C(c2c[nH]cn2)c2cccc(C(=O)NCC3CCOCC3)c2F)c1C (single isomer, unassigned) [124-B] | 10 to 50 nM | < 10 nM | 10.3 |
| Cc1cccc(C(Cc2ccc(C(N)=O)c(F)c2)c2c[nH]cn2)c1C (single isomer, unassigned) [156-B] | < 10 nM | < 10 nM | 2.86 |
| Brc1c(NC2=NCCN2)ccc2nccnc12 [Brimonidine, brimonidine, reference compound] |  |  | 0.83 |
| C[C@H]1O[C@@H](O[C@H]2[C@@H](O)C[C@H](O[C@H]3[C@@H](O)C[C@H](O[C@H]4CC[C@@]5(C)[C@H](CC[C@@H]6[C@@H]5C[C@@H](O)[C@]5(C)[C@@H](C7=CC(=O)OC7)CC[C@]65O)C4)O[C@@H]3C)O[C@@H]2C)C[C@H](O)[C@@H]1O [Digoxin, reference compound] |  |  | 13.7 |
| Cc1cccc(C(c2c[nH]cn2)c2cccc(OCCNS(C)(=O)=O)c2F)c1C (centres unmarked) [compound 55] | 10 to 50 nM | 10 to 50 nM | 26.4 |
| Cc1cccc(C(c2c[nH]cn2)c2cccc(C(N)=O)n2)c1C (centres unmarked) [compound 56] | 10 to 50 nM | 10 to 50 nM | 11.5 |
| Cc1cccc(C(c2cccc(NC(=O)OC3CCOC3)c2)c2c[nH]cn2)c1C (centres unmarked) [compound 64] | 10 to 50 nM | 10 to 50 nM | 24.3 |
| CCS(=O)(=O)Nc1cccc(C(c2c[nH]cn2)c2cccc(C)c2C)c1 (centres unmarked) [compound 67] | 10 to 50 nM | 10 to 50 nM | 29 |
| CONC(=O)Nc1cccc(C(c2c[nH]cn2)c2cccc(C)c2C)c1 (centres unmarked) [compound 72] | 10 to 50 nM | 10 to 50 nM | 32.9 |
| Cc1cccc(C(c2cccc(NC(=O)CC3CCOC3)c2)c2c[nH]cn2)c1C (centres unmarked) [compound 73] | 10 to 50 nM | 10 to 50 nM | 96.1 |
| Cc1cccc(C(c2cccc(NS(=O)(=O)CCC#N)c2)c2c[nH]cn2)c1C (centres unmarked) [compound 74] | 50 to 250 nM | 10 to 50 nM | 93.5 |
| Cc1cccc(C(c2cccc(NC(=O)CC3CCOCC3)c2)c2c[nH]cn2)c1C (centres unmarked) [compound 80] | 10 to 50 nM | < 10 nM | 112 |

| Structure (SMILES) | EC50 [1] | Ki (α2AAR) | efflux ratio at 2.5 h, 2 μM [2] |
| --- | --- | --- | --- |
| Cc1cccc(C(c2cccc(NC(=O)CN3CCOCC3)c2)c2c[nH]cn2)c1C (centres unmarked) [compound 81] | 10 to 50 nM | < 10 nM | 62.5 |
| Cc1cccc(C(c2cccc(C(=O)NOCC3CCOC3)c2)c2c[nH]cn2)c1C (centres unmarked) [compound 95] | 10 to 50 nM | < 10 nM | 102 |
| Cc1cccc(C(c2cccc(C(=O)NCC3CCOCC3)c2)c2c[nH]cn2)c1C (centres unmarked) [compound 98] |  |  | 82.6 |
| Cc1cccc(C(c2cccc(C(=O)NCC3CCC(O)CC3)c2)c2c[nH]cn2)c1C (centres unmarked) [compound 99] | 10 to 50 nM | 10 to 50 nM | 141 |
| Cc1cccc(C(c2cccc(NC(=O)CCC3CCOCC3)c2)c2c[nH]cn2)c1C (centres unmarked) [compound 101] | 10 to 50 nM | 10 to 50 nM | 104 |
| Cc1cccc(C(c2cccc(NC(=O)Cc3ccncc3)c2)c2c[nH]cn2)c1C (centres unmarked) [compound 103] | 10 to 50 nM | 10 to 50 nM | 149 |
| Cc1cccc(C(c2cccc(S(=O)(=O)NCC3CCOCC3)c2)c2c[nH]cn2)c1C (centres unmarked) [compound 105] | 10 to 50 nM | < 10 nM | 65.8 |
| Cc1cccc(C(Cc2cccc(NC(=O)CC3CCOCC3)c2)c2c[nH]cn2)c1C (centres unmarked) [compound 108] | 10 to 50 nM | < 10 nM | 72.2 |
| Cc1cccc(C(c2cccc(NC(=O)NC3CC3)c2)c2c[nH]cn2)c1C (centres unmarked) [compound 109] | 10 to 50 nM | 10 to 50 nM | 94.8 |
| Cc1cccc(C(c2cccc(NC(=O)NC3CCOCC3)c2)c2c[nH]cn2)c1C (centres unmarked) [compound 111] | 10 to 50 nM | 10 to 50 nM | 173 |
| Cc1cccc(C(Cc2cccc(NS(=O)(=O)CC3CCOCC3)c2)c2c[nH]cn2)c1C (centres unmarked) [compound 112] | 10 to 50 nM | < 10 nM | 58.4 |
| Cc1cccc(C(c2c[nH]cn2)c2cccc(C(=O)NCC3CCOCC3)c2O)c1C (centres unmarked) [compound 138] | 10 to 50 nM | < 10 nM | 7.85 |
| Cc1cccc(C(c2cccc(NC(=O)CC[N+](C)(C)C)c2)c2c[nH]cn2)c1C (centres unmarked) [compound 141] | 50 to 250 nM | 10 to 50 nM | 2.61 |
| Cc1cccc(C(Cc2ccc(NS(=O)(=O)C3CCOCC3)cc2)c2c[nH]cn2)c1C (centres unmarked) [compound 158] | 10 to 50 nM | < 10 nM | 23.7 |
| Cc1cccc(C(Cc2ccc(C(N)=O)cc2)c2c[nH]cn2)c1C (centres unmarked) [compound 163] | 10 to 50 nM | < 10 nM | 9.08 |
| CNS(=O)(=O)c1ccc(CC(Oc2c(Cl)cccc2Cl)C2=NCCN2)cc1 (centres unmarked) [compound 519] | 50 to 250 nM | 10 to 50 nM |  |
